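The compound was tested at five concentrations on cells cultured in 96-well plates, with a 48-hour exposure period. TGI: concentration producing complete growth inhibition.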
Columns and labels:
Experiment in all cases: growth of human tumour cells (NCI), 48 h
SK-MEL-5 melanoma = system: SK-MEL-5 melanoma
UACC-257 melanoma = system: UACC-257 melanoma
SF-539 CNS = system: SF-539 CNS
HCT-116 colon = system: HCT-116 colon
IGROV1 ovarian = system: IGROV1 ovarian
NCI-H522 lung = system: NCI-H522 lung
OVCAR-3 ovarian = system: OVCAR-3 ovarian
MOLT-4 leukemia = system: MOLT-4 leukemia
ACHN renal = system: ACHN renal
HOP-92 NSCLC = system: HOP-92 NSCLC
RXF 393 renal = system: RXF 393 renal
MCF7 breast = system: MCF7 breast
CAKI-1 renal = system: CAKI-1 renal
UACC-62 melanoma = system: UACC-62 melanoma
MDA-MB-231 breast = system: MDA-MB-231 breast
786-0 renal = system: 786-0 renal
A549 NSCLC = system: A549 NSCLC
NCI-H226 lung = system: NCI-H226 lung
A498 renal = system: A498 renal
T-47D breast = system: T-47D breast

Compound | TGI (SK-MEL-5 melanoma) | TGI (UACC-257 melanoma) | TGI (SF-539 CNS) | TGI (HCT-116 colon) | TGI (IGROV1 ovarian) | TGI (NCI-H522 lung) | TGI (OVCAR-3 ovarian) | TGI (MOLT-4 leukemia) | TGI (ACHN renal) | TGI (HOP-92 NSCLC) | TGI (RXF 393 renal) | TGI (MCF7 breast) | TGI (CAKI-1 renal) | TGI (UACC-62 melanoma) | TGI (MDA-MB-231 breast) | TGI (786-0 renal) | TGI (A549 NSCLC) | TGI (NCI-H226 lung) | TGI (A498 renal) | TGI (T-47D breast)
CCOC(=O)C(Cc1c2ccccc2cc2ccccc12)(NC(C)=O)C(=O)OCC | > 100 µM | > 100 µM | > 100 µM | > 100 µM | > 100 µM | > 100 µM | > 100 µM | > 90.1 µM | > 100 µM | 83.1 µM | > 100 µM | > 100 µM | > 100 µM | > 80.9 µM | > 100 µM | > 100 µM | > 100 µM | > 100 µM | > 100 µM | > 100 µM
C=C1C[C@@H](O)[C@@H](Br)C(C)(C)[C@]12CCC(C)(Cl)C(Br)C2 (stereo not given in full) | 23.4 µM | > 70.7 µM | 32.3 µM | > 100 µM | 46.4 µM | 44.1 µM | 37.4 µM | > 100 µM | > 87.5 µM | > 73.6 µM | > 76.1 µM | > 79.3 µM | > 90.4 µM | > 100 µM | > 85.2 µM | > 78.2 µM | > 86 µM | > 84.8 µM | 97.5 µM | > 100 µM
O=c1c2cc([N+](=O)[O-])ccc2n(Cc2ccccc2)n1Cc1ccccc1 | 13.3 µM | 19.8 µM | > 31.6 µM | > 31.6 µM | > 31.6 µM | 23.6 µM | > 31.6 µM | > 31.6 µM | > 31.6 µM | > 31.6 µM | > 31.6 µM | 28.6 µM | > 31.6 µM | 21.4 µM | 29.1 µM | > 31.6 µM | > 31.6 µM | > 31.6 µM | > 31.6 µM | 24.7 µM
Cn1c(=O)c2c(no[n+]2[O-])n(C)c1=O | > 100 µM | 84.6 µM | > 100 µM | > 100 µM | 58.7 µM | 30 µM | > 100 µM | > 100 µM | > 100 µM | 44.1 µM | 94.2 µM | > 100 µM | 35.2 µM | 40.5 µM | 48.1 µM | 71.8 µM | > 100 µM | 59.3 µM | 48 µM | > 100 µM
c1ccc(C2C3=C(CCCC3)Nc3nc4cc5ccccc5cc4n32)cc1 (stereo not given) | > 100 µM | > 100 µM | > 100 µM | > 100 µM | > 100 µM | > 100 µM | > 100 µM | > 100 µM | > 100 µM | > 100 µM | > 100 µM | > 100 µM | > 100 µM | > 100 µM | > 100 µM | > 100 µM | > 100 µM | > 100 µM | > 100 µM | > 100 µM
NC1CC(=O)c2c(Cl)sc(Cl)c21 (stereo not given) | 22.9 µM | 7.27 µM | 8.85 µM | 4.49 µM | 9.84 µM | 2.89 µM | 24 µM | 9.37 µM | 6.14 µM | 2.91 µM | 2.95 µM | 7.9 µM | 6.1 µM | 7.78 µM | 6.39 µM | 2.87 µM | 35.3 µM | 30.9 µM | 31.1 µM | 4.96 µM
NS(=O)(=O)c1ccc(NNc2c3ccccc3nc3ccccc23)cc1 | 17.2 µM | 18 µM | 17.2 µM | 15.5 µM | 19.1 µM | 16.4 µM | 15 µM | 19.2 µM | 19.9 µM | 23.4 µM | 23 µM | 15.8 µM | 18.9 µM | 17.2 µM | 25.9 µM | 17.4 µM | 25.6 µM | 18.8 µM | 53.9 µM | 20.4 µM
O=C1OCC2(CO1)CC1C=CC2C1 (stereo not given) | > 100 µM | > 100 µM | > 100 µM | > 100 µM | > 100 µM | > 100 µM | > 100 µM | > 100 µM | > 100 µM | > 100 µM | > 100 µM | > 100 µM | > 100 µM | > 100 µM | > 100 µM | > 100 µM | > 100 µM | > 100 µM | > 100 µM | > 100 µM
COC(=O)C1Cc2cccc(C)c2C1 (stereo not given) | > 100 µM | > 100 µM | > 100 µM | > 100 µM | > 100 µM | > 100 µM | > 100 µM | > 100 µM | > 100 µM | > 100 µM | > 100 µM | 71.6 µM | > 100 µM | > 100 µM | > 100 µM | > 100 µM | > 100 µM | > 100 µM | > 100 µM | > 100 µM
COC(=O)[C@@H]1C[C@H]([Se]c2ccccc2)CN1S(=O)(=O)c1ccc(C)cc1 | > 100 µM | > 100 µM | > 100 µM | > 100 µM | > 100 µM | > 100 µM | > 100 µM | > 100 µM | > 100 µM | > 100 µM | > 100 µM | > 100 µM | > 100 µM | > 100 µM | > 100 µM | > 100 µM | > 100 µM | > 100 µM | > 100 µM | > 100 µM
Cc1ccc2c(c1)C(=O)C(Cc1ccccc1C(=O)O)C2 (stereo not given) | > 100 µM | > 100 µM | > 100 µM | > 100 µM | > 100 µM | > 100 µM | > 100 µM | > 100 µM | > 100 µM | > 100 µM | > 100 µM | > 100 µM | > 100 µM | > 100 µM | > 100 µM | > 100 µM | > 100 µM | > 100 µM | > 100 µM | > 100 µM
CCc1ccc(Nc2cc(=O)[nH]c(SCc3ccccc3)n2)cc1 | > 100 µM | > 100 µM | > 100 µM | > 100 µM | > 100 µM | > 100 µM | > 100 µM | > 100 µM | > 100 µM | > 100 µM | > 100 µM | > 100 µM | > 100 µM | > 100 µM | > 100 µM | > 100 µM | > 100 µM | > 100 µM | > 100 µM | > 100 µM
CC1=C2C(=O)OCC23C=COC3(C)O1 (stereo not given) | 35.6 µM | > 100 µM | 65.9 µM | > 100 µM | > 100 µM | 78.9 µM | 97.1 µM | > 100 µM | > 100 µM | > 100 µM | > 100 µM | > 100 µM | 68.8 µM | 46.7 µM | > 100 µM | > 100 µM | > 100 µM | 97.8 µM | > 100 µM | > 100 µM
COc1cccc2c(NNc3ccccc3)c3ccc([N+](=O)[O-])cc3nc12 | > 100 µM | > 100 µM | > 100 µM | > 100 µM | > 100 µM | > 100 µM | > 100 µM | 5.84 µM | > 100 µM | > 100 µM | > 100 µM | > 100 µM | > 100 µM | > 100 µM | > 100 µM | 73.3 µM | > 100 µM | > 100 µM | > 100 µM | > 100 µM
CCCCCC(O)[C@H]1C(=O)C[C@@H](O[Si](C)(C)C(C)(C)C)[C@@H]1/C=C/CCOCc1ccccc1 (stereo not given in full) | 37.9 µM | 26.4 µM | 29.5 µM | > 45.5 µM | 25.6 µM | 15 µM | 28.1 µM | > 29.7 µM | 26.2 µM | 28.1 µM | 31.3 µM | > 54.7 µM | 29.9 µM | 25.1 µM | 61.8 µM | 26.1 µM | > 60.3 µM | 27.5 µM | 39.9 µM | 40.1 µM
O=C1CCCC2=C(N1)C(=O)C=CC2=O | 57.1 µM | 61.1 µM | 59.1 µM | 49.1 µM | 57.2 µM | 34.8 µM | 64.4 µM | 31.5 µM | 55.1 µM | 38.8 µM | 62.9 µM | 38.4 µM | 49.6 µM | 56.7 µM | 33.5 µM | 57.5 µM | > 78.5 µM | > 68.5 µM | > 70.4 µM | 52.7 µM
Cc1cn(C2CC(O)C(Cn3cc(Cn4ncc(=O)[nH]c4=O)nn3)O2)c(=O)[nH]c1=O (stereo not given) | > 100 µM | > 100 µM | > 100 µM | > 100 µM | > 100 µM | > 100 µM | > 100 µM | > 100 µM | > 100 µM | > 100 µM | > 100 µM | > 100 µM | > 100 µM | > 100 µM | > 100 µM | > 100 µM | > 100 µM | > 100 µM | > 100 µM | > 100 µM
CC(=O)CCNc1ccc(-c2cc(-c3ccc(N(C)C)cc3)nc3ccc4ccccc4c23)cc1 | > 100 µM | > 100 µM | > 100 µM | > 100 µM | > 100 µM | > 100 µM | > 100 µM | > 100 µM | > 100 µM | > 100 µM | > 100 µM | > 100 µM | > 100 µM | > 100 µM | > 100 µM | > 100 µM | > 100 µM | > 78.9 µM | > 100 µM | > 100 µM
Cn1c(=O)[nH]c2[nH]c3ccccc3c2c1=O | > 100 µM | > 100 µM | > 100 µM | > 100 µM | > 100 µM | > 100 µM | > 100 µM | > 100 µM | > 100 µM | > 100 µM | > 100 µM | > 100 µM | > 100 µM | > 100 µM | > 100 µM | > 100 µM | > 100 µM | > 100 µM | > 100 µM | > 100 µM
